Read-outs that look alike come from different tables or passages of the source.
Biological target: TPK enzyme (Homo sapiens, UniProt Q9H3S4)
Assay: TPK enzyme activity test (TDP formation from thiamine and ATP, HPLC detection)
Format: biochemical
Method: The purpose of this example was to test the promoting effect of compounds on TPK enzyme activity and evaluate the in vitro activity of the compounds based on EC50 and Emax.
1.1) The constant-temperature water-bath shaker was pre-heated half an hour in advance at a pre-heating temperature of 37° C.
1.2) The stock solution of the compound to be tested was taken out, allowed to thaw at room temperature, and then diluted to the required concentration.
1.3) The required reagents were placed on ice to thaw.
2.1) For each reaction system, TPK enzyme solution, Tris-HCl buffer solution, and ATP solution were added. The concentration of ATP used was 1-500 mM. The above three solutions were formulated into a homogeneous mixture.
2.2) The mixture of the above three solutions was dispensed into centrifuge tubes. Then, the compound at the required concentration was added to each centrifuge tube. Finally, thiamine solution (1-100 μM) was added. After the addition of the above system was completed, the centrifuge tubes were tightly capped, inserted into a floating board, and placed in the constant-temperature water-bath shaker that had been pre-heated to 37° C. for incubation for 0.5-2.0 hours.
2.3) After the incubation was completed, perchloric acid stop solution was added and mixed well. Samples were taken into 1.5 mL centrifuge tubes and stored at −20° C.
3.1) The samples stored at −20° C. were taken out, thawed at room temperature, and then subjected to derivatization treatment. The samples were placed in centrifuge tubes, a potassium ferricyanide derivatization reagent was added, and finally phosphoric acid stop solution was added to stop the reaction.
3.2) The derivatized samples were placed in sample vials for liquid chromatography analysis, and the contents of TDP/thiamine were detected by high performance liquid chromatography. TKP enzyme activity=TDP (nM)/mg protein/min.
The effects of the compounds of the present invention on TPK enzyme activity at different concentrations were determined according to the above procedures.

[1] = promoting effect on TPK enzyme activity
[2] = promoting effect on TPK enzyme activity, calculated with the effect of DMSO on TPK enzyme activity as 100%, read-out: Emax

TPK enzyme, sequence (Q9H3S4 whole entry): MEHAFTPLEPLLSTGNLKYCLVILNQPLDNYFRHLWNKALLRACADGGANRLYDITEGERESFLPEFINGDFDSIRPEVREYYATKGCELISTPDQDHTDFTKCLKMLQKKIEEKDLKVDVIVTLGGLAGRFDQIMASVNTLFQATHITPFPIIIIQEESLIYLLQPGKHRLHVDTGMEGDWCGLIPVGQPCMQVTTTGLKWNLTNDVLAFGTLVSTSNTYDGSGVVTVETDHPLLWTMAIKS

| SMILES | EC50 [1] [nM] | Emax [2] [%] | Emax [%] |
| --- | --- | --- | --- |
| O=C1CCc2ccc(OC#CCCN3CCN(c4cccc(Cl)c4Cl)CC3)cc2N1 [Compound 1, 7-((4-(4-(2,3-dichlorophenyl)piperazin-1-yl)but-1-yn-1-yl)oxy)-3,4-dihydroquinolin-2(1H)-one] | 1160 | 183 | – |
| O=C1CCc2ccc(OCCCCN3CCN(c4cccc(Cl)c4Cl)CC3)cc2N1 [Compound 2] | 460 | 155 | – |
| O=C1CCc2ccc(OCCCCCCN3CCN(c4cccc(Cl)c4Cl)CC3)cc2N1 [Compound 3, 7-((6-(4-(2,3-dichlorophenyl)piperazin-1-yl)hexyl)oxy)-3,4-dihydroquinolin-2(1H)-one] | – | 205 | – |
| O=C1CCc2ccc(OCCCCCN3CCN(c4cccc(Cl)c4Cl)CC3)cc2N1 [Compound 4, 7-((5-(4-(2,3-dichlorophenyl)piperazin-1-yl)pentyl)oxy)-3,4-dihydroquinolin-2(1H)-one] | 1040 | 194 | – |
| O=C1CCc2ccc(OCCCN3CCN(c4cccc(Cl)c4Cl)CC3)cc2N1 [Compound 5] | 1200 | 184 | – |
| O=C1CCc2ccc(OCCCCN3CCN(c4cccc(C(F)(F)F)c4)CC3)cc2N1 [Compound 6, 7-(4-(4-(3-(trifluoromethyl)phenyl)piperazin-1-yl)butoxy)-3,4-dihydroquinolin-2(1H)-one] | 1270 | 215 | – |
| O=C1CCc2ccc(OCCCCCN3CCN(c4cccc(C(F)(F)F)c4)CC3)cc2N1 [Compound 7, 7-((5-(4-(3-(trifluoromethyl)phenyl)piperazin-1-yl)pentyl)oxy)-3,4-dihydroquinolin-2(1H)-one] | 1180 | 224 | – |
| O=c1ccc2ccc(OCCCCN3CCN(c4cccc(Cl)c4Cl)CC3)cc2[nH]1 [Compound 10, 7-(4-(4-(2,3-dichlorophenyl)piperazin-1-yl)butoxy)quinolin-2(1H)-one] | 130 | 183 | – |
| O=C1CCc2ccc(OCCCCN3CCC(c4cccc(Cl)c4Cl)CC3)cc2N1 [Compound 19] | 5010 | 196 | – |
| O=C1CCc2ccc(OCC(=O)NC3CCC(c4cccc(Cl)c4Cl)CC3)cc2N1 (stereo not shown) [Compound 21, N-(4-(2,3-dichlorophenyl)cyclohexyl)-2-((2-oxo-1,2,3,4-tetrahydroquinolin-7-yl)oxy)acetamide] | 1060 | 166 | – |
| O=C1NCCc2ccc(OCCCCN3CCN(c4cccc(Cl)c4Cl)CC3)cc21 [Compound 22] | 1190 | 167 | – |
| O=C1NCCc2ccc(OCCCCCN3CCN(c4cccc(Cl)c4Cl)CC3)cc21 [Compound 23, 7-((5-(4-(2,3-dichlorophenyl)piperazin-1-yl)pentyl)oxy)-3,4-dihydroisoquinolin-1(2H)-one] | 1010 | 226 | – |
| O=C1Cc2ccc(OCCCCN3CCN(c4cccc(Cl)c4Cl)CC3)cc2N1 [Compound 24, 6-(4-(4-(2,3-dichlorophenyl)piperazin-1-yl)butoxy)indolin-2-one] | – | 189 | – |
| O=C1Cc2ccc(OCCCCN3CCN(c4cccc(C(F)(F)F)c4)CC3)cc2N1 [Compound 25, 6-(4-(4-(3-(trifluoromethyl)phenyl)piperazin-1-yl)butoxy)indolin-2-one] | 754 | 138 | – |
| O=C1COc2ccc(OCCCCN3CCN(c4cccc(Cl)c4Cl)CC3)cc2N1 [Compound 26] | 1220 | 190 | – |
| Clc1cccc(N2CCN(CCCOc3ccc4ncsc4c3)CC2)c1Cl [Compound 28, 6-(3-(4-(2,3-dichlorophenyl)piperazin-1-yl)propoxy)benzo[d]thiazole] | 1540 | 185 | – |
| Clc1cccc(N2CCN(CCCCOc3ccc4ncsc4c3)CC2)c1Cl [Compound 29, 6-(4-(4-(2,3-dichlorophenyl)piperazin-1-yl)butoxy)benzo[d]thiazole] | 2280 | 191 | – |
| CC1(C)CCC(C)(C)c2cc(NC(=O)C=CC(=O)N3CCN(c4cccc(Cl)c4Cl)CC3)ccc21 [Compound 30, 4-(4-(2,3-dichlorophenyl)piperazin-1-yl)-4-oxo-N-(5,5,8,8-tetramethyl-5,6,7,8-tetrahydronaphthalen-2-yl)but-2-enamide] | – | 132 | – |
| CC1(C)CCC(C)(C)c2cc(NC(=O)CCC(=O)N3CCN(c4cccc(Cl)c4Cl)CC3)ccc21 [Compound 31, 4-(4-(2,3-dichlorophenyl)piperazin-1-yl)-4-oxo-N-(5,5,8,8-tetramethyl-5,6,7,8-tetrahydronaphthalen-2-yl)butanamide] | – | 124 | – |

| SMILES | EC50 [1] [nM] | Emax [2] [%] | Emax [%] |
| --- | --- | --- | --- |
| O=C1CCc2ccc(OCCN3CCN(c4nc5ccccc5s4)CC3)cc2N1 [Compound 34, 7-(2-(4-(benzo[d]thiazol-2-yl)piperazin-1-yl)ethoxy)-3,4-dihydroquinolin-2(1H)-one] | 1300 | 189 | – |
| O=c1ccc2ccc(OCCN3CCN(c4nc5ccccc5s4)CC3)cc2[nH]1 [Compound 35, 7-(2-(4-(benzothiazol-2-yl)piperazin-1-yl)ethoxy)quinolin-2(1H)-one] | 1370 | 163 | – |
| O=C1CCc2ccc(OCCCCN3CCN(c4nc5ccccc5s4)CC3)cc2N1 [Compound 36, 7-(4-(4-(benzo[d]thiazol-2-yl)piperazin-1-yl)butoxy)-3,4-dihydroquinolin-2(1H)-one] | 1320 | 139 | – |
| O=c1ccc2ccc(OCCCCN3CCN(c4nc5ccccc5s4)CC3)cc2[nH]1 [Compound 37, 7-(4-(4-(benzo[d]thiazol-2-yl)piperazin-1-yl)butoxy)quinolin-2(1H)-one] | 1170 | 224 | – |
| O=C1CCc2ccc(OCCCN3CCN(c4nc5ccccc5s4)CC3)cc2N1 [Compound 38, 7-(3-(4-(benzo[d]thiazol-2-yl)piperazin-1-yl)propoxy)-3,4-dihydroquinolin-2(1H)-one] | 1180 | 157 | – |
| Cc1cc2c(s1)Nc1ccccc1N=C2N1CCN(CCCOc2ccc3c(c2)NC(=O)CC3)CC1 [Compound 40, 7-(3-(4-(2-methyl-10H-benzo[b]thieno[2,3-e][1,4]diazepin-4-yl)piperazin-1-yl)propoxy)-3,4-dihydroquinolin-2(1H)-one] | – | 122 | – |
| Cc1cc2c(s1)Nc1ccccc1N=C2N1CCN(CCCCOc2ccc3c(c2)NC(=O)CC3)CC1 [Compound 42, 7-(4-(4-(2-methyl-10H-benzo[b]thieno[2,3-e][1,4]diazepin-4-yl)piperazin-1-yl)butoxy)-3,4-dihydroquinolin-2(1H)-one] | 1000 | 170 | – |
| O=C1Cc2ccc(OCCCCN3CCN(c4nc5ccccc5s4)CC3)cc2N1 [Compound 44, 6-(4-(4-(benzo[d]thiazol-2-yl)piperazin-1-yl)butoxy)indolin-2-one] | 1140 | 235 | – |
| Cc1cccc(NC(=O)CSCC(=O)N2CCN(c3cc(C(F)(F)F)cc(C(F)(F)F)c3)CC2)c1 [Compound 45, 2-((2-(4-(3,5-bis(trifluoromethyl)phenyl)piperazin-1-yl)-2-oxoethyl)thio)-N-(m-tolyl)acetamide] | 1070 | 152 | – |
| Cc1cccc(NC(=O)CSCC(=O)N2CCN(c3cccc(Cl)c3Cl)CC2)c1 [Compound 46] | 1310 | 149 | – |
| COc1ccc(NC(=O)CN2CCN(c3cccc(Cl)c3Cl)CC2)cc1N [Compound 47, N-(3-amino-4-methoxyphenyl)-2-(4-(2,3-dichlorophenyl)piperazin-1-yl)acetamide] | 4650 | 199 | – |
| COc1ccc(NC(=O)CN2CCN(c3cccc(Cl)c3Cl)CC2)cc1N(C)C [Compound 48, 2-(4-(2,3-dichlorophenyl)piperazin-1-yl)-N-(3-(dimethylamino)-4-methoxyphenyl)acetamide] | 3800 | 156 | – |
| CNc1cc(NC(=O)CCN2CCN(c3cccc(Cl)c3Cl)CC2)ccc1OC [Compound 50, 3-(4-(2,3-dichlorophenyl)piperazin-1-yl)-N-(4-methoxy-3-(methylamino)phenyl)propanamide] | – | 128 | – |
| O=C(NCCCCN1CCN(c2cc(C(F)(F)F)cc(C(F)(F)F)c2)CC1)c1ccc(Cl)cc1 [Compound 53, N-(4-(4-(3,5-bis(trifluoromethyl)phenyl)piperazin-1-yl)butyl)-4-chlorobenzamide] | – | – | 133 |
| O=C(/C=C/c1cc(O)c(O)c(O)c1)N1CCN(c2cccc(Cl)c2Cl)CC1 [Compound 55, (E)-1-(4-(2,3-dichlorophenyl)piperazin-1-yl)-3-(3,4,5-trihydroxyphenyl)prop-2-en-1-one] | – | 134 | – |
| O=C(/C=C/c1ccc(O)c(O)c1)N1CCN(c2cccc(Cl)c2Cl)CC1 [Compound 56] | – | 180 | – |
| COc1cc(/C=C/C(=O)N2CCN(c3cccc(Cl)c3Cl)CC2)cc(OC)c1OC [Compound 57] | – | 135 | – |
| COc1ccc(/C=C/C(=O)N2CCN(c3cccc(Cl)c3Cl)CC2)cc1OC [Compound 58] | 1200 | 223 | – |

Reference: patent US20260076975A1, “TPK AGONIST AND METHOD FOR USING SAME TO TREAT NEURODEGENERATIVE DISEASES” (SHANGHAI RAISING PHARMACEUTICAL CO., LTD., priority 2022, published 2026)
